Laboratory results taken from US10781201B2, “Benzimidazole derivative having JNK inhibitory activity and use thereof” (INDUSTRY-UNIVERSITY COOPERATION FOUNDATION HANYANG …, priority 2017, dated 2020).

Biological target: human JNK3 enzyme (Homo sapiens, UniProt P53779)
Assay: Measurement of JNK3 enzymatic activity (33P-ATP filter-binding method)
Type: biochemical
Conditions: ATP 10 μM, ATF2 3 μM
Description: First, a substrate was added to a prepared base reaction buffer solution (20 mM Hepes (pH 7.5), 10 mM MgCl2, 1 mM EGTA, 0.02% Brij35, 0.02 mg/ml BSA, 0.1 mM Na3VO4, 2 mM DTT, 1% DMSO), a human JNK3 enzyme was added into the prepared substrate solution, and the resulting solution was mixed. ATP (10 μM) and ATF2 (3 μM) were used as substrates, and among them, ATP was used as a common substrate. Next, the compound according to the present invention dissolved in 100% DMSO was added to an enzyme reaction solution, and incubated at room temperature for 20 minutes. Subsequently, ^33P-ATP was added to the mixed reaction solution to initiate the reaction, followed by incubation at room temperature for 2 hours, and enzymatic activity was detected by a filter-binding method. Specifically, 25 al per resulting solution was slowly spotted on P81 paper and placed in a scintillation vial, and then the paper was washed four times with 0.75% phosphoric acid for 10 minutes each and washed once with acetone for 5 minutes. 5 ml of a scintillation cocktail was added to the scintillation vial and signals were read using a scintillation counter.

Sequence of human JNK3 enzyme (P53779 whole entry): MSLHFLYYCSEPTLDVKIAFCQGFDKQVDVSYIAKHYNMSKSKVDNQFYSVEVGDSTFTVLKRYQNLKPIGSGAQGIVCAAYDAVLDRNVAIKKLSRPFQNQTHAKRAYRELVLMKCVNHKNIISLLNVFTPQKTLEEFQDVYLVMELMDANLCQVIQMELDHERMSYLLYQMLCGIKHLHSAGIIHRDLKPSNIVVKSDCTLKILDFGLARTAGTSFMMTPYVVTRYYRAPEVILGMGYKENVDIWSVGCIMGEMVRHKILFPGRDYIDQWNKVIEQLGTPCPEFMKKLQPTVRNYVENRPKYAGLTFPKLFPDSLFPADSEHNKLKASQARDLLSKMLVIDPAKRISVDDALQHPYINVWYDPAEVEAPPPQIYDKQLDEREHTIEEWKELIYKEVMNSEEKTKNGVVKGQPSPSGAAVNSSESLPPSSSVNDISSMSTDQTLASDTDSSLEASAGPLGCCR

Compound | IC50 (Table 1) | IC50 (Table 2)
Oc1ccc2c(c1)nc(-c1ccc3ccccc3c1)n2-c1ccnc(NC2CCOCC2)n1 [Compound 9a, 2-(naphthalene-2-yl)-1-(2-((tetrahydro-2H-pyran-4-yl)amino)pyrimidin-4-yl)-1H-benzo[d]imidazole-5-ol] | > 0.1 µM | 
Oc1ccc2c(c1)nc(-c1ccc3c(c1)OCCO3)n2-c1ccnc(NC2CCOCC2)n1 [Compound 9c, 2-(2,3-dihydrobenzo[b][1,4]dioxin-6-yl)-1-(2-((tetrahydro-2H-pyran-4-yl)amino)pyrimidin-4-yl)-1H-benzo[d]imidazole-5-ol] | > 0.1 µM | 
Oc1ccc2c(c1)nc(-c1ccc3occc3c1)n2-c1ccnc(NC2CCOCC2)n1 [Compound 9d, 2-(benzofuran-5-yl)-1-(2-((tetrahydro-2H-pyran-4-yl)amino)pyrimidin-4-yl)-1H-benzo[d]imidazole-5-ol] | > 0.1 µM | 
Oc1ccc2c(c1)nc(-c1ccc(Cl)c(Cl)c1)n2-c1ccnc(NC2CCOCC2)n1 [Compound 9e] | 0.03 to 0.1 µM | 
Oc1ccc2c(c1)nc(-c1ccc(F)c(C(F)(F)F)c1)n2-c1ccnc(NC2CCOCC2)n1 [Compound 9f, 2-(4-fluoro-3-(trifluoromethyl)phenyl)-1-(2-((tetrahydro-2H-pyran-4-yl)amino)pyrimidin-4-yl)-1H-benzo[d]imidazole-5-ol] | 0.03 to 0.1 µM | 
Oc1ccc2c(c1)nc(-c1ccc3ccccc3c1)n2-c1ccnc(NC2CCCCC2)n1 [Compound 10a, 1-(2-(cyclohexylamino)pyrimidin-4-yl)-2-(naphthalene-2-yl)-1H-benzo[d]imidazole-5-ol] | > 0.1 µM | 
Oc1ccc2c(c1)nc(-c1ccc3c(c1)OCCO3)n2-c1ccnc(NC2CCCCC2)n1 [Compound 10c, 1-(2-(cyclohexylamino)pyrimidin-4-yl)-2-(2,3-dihydrobenzo[b][1,4]dioxin-6-yl)-1H-benzo[d]imidazole-5-ol] | > 0.1 µM | 
Oc1ccc2c(c1)nc(-c1ccc3occc3c1)n2-c1ccnc(NC2CCCCC2)n1 [Compound 10d, 2-(benzofuran-5-yl)-1-(2-(cyclohexylamine)pyrimidin-4-yl)-1H-benzo[d]imidazole-5-ol] | > 0.1 µM | 
Oc1ccc2c(c1)nc(-c1ccc(Cl)c(Cl)c1)n2-c1ccnc(NC2CCCCC2)n1 [Compound 10e, 1-(2-(cyclohexylamino)pyrimidin-4-yl)-2-(3,4-dichlorophenyl)-1H-benzo[d]imidazole-5-ol] | > 0.1 µM | 
Oc1ccc2c(c1)nc(-c1ccc(F)c(C(F)(F)F)c1)n2-c1ccnc(NC2CCCCC2)n1 [Compound 10f, 1-(2-(cyclohexylamino)pyrimidin-4-yl)-2-(4-fluoro-3-(trifluoromethyl)phenyl)-1H-benzo[d]imidazole-5-ol] | > 0.1 µM | 
O=C(C1CC1)N1CCC[C@H](Nc2nccc(-n3c(-c4ccc5ccccc5c4)nc4cc(O)ccc43)n2)C1 [Compound 13a, (S)-cyclopropyl(3-((4-(5-hydroxy-2-(naphthalene-2-yl)-1H-benzo[d]imidazole-1-yl)pyrimidin-2-yl)amino)piperidine-1-yl)methanone] | 0.03 to 0.1 µM | 
O=C(C1CC1)N1CCC[C@H](Nc2nccc(-n3c(-c4ccc5ccccc5n4)nc4cc(O)ccc43)n2)C1 [Compound 13b, (S)-cyclopropyl(3-((4-(5-hydroxy-2-(Quinoline-2-yl)-1H-benzo[d]imidazole-1-yl)pyrimidin-2-yl)amino)piperidine-1-yl)methanone] | 0.03 to 0.1 µM | 
O=C(C1CC1)N1CCC[C@H](Nc2nccc(-n3c(-c4ccc5c(c4)OCCO5)nc4cc(O)ccc43)n2)C1 [Compound 13c, (S)-cyclopropyl(3-((4-(2-(2,3-dihydrobenzo[b][1,4]dioxin-6-yl)-5-hydroxy-1H-benzo[d]imidazole-1-yl)pyrimidin-2-yl)amino)piperidine-1-yl)methanone] | 0.03 to 0.1 µM | 
O=C(C1CC1)N1CCC[C@H](Nc2nccc(-n3c(-c4ccc5occc5c4)nc4cc(O)ccc43)n2)C1 [Compound 13d, (S)-(3-(4-(2-(benzofuran-5-yl)-5-hydroxy-1H-benz[d]imidazole-1-yl)pyrimidin-2-ylamino)piperidine-1-yl)(cyclopropyl)methanone] | < 0.03 µM | 
O=C(C1CC1)N1CCC[C@H](Nc2nccc(-n3c(-c4ccc(Cl)c(Cl)c4)nc4cc(O)ccc43)n2)C1 [Compound 13e, (S)-cyclopropyl(3-((4-(2-(3,4-dichlorophenyl)-5-hydroxy-1H-benzo[d]imidazole-1-yl)pyrimidin-2-yl)amino)piperidine-1-yl)methanone] | < 0.03 µM | 
O=C(C1CC1)N1CCC[C@H](Nc2nccc(-n3c(-c4ccc(F)c(C(F)(F)F)c4)nc4cc(O)ccc43)n2)C1 [Compound 13f, (S)-cyclopropyl(3-((4-(2-(4-fluoro-3-(trifluoromethyl)phenyl)-5-hydroxy-1H-benzo[d]imidazole-1-yl)pyrimidin-2-yl)amino)piperidine-1-yl)methanone] | 0.03 to 0.1 µM | 
O=C(C1CC1)N1CCC[C@H](Nc2nccc(-n3c(-c4ccc5c(c4)OCO5)nc4cc(O)ccc43)n2)C1 [Compound 13g, (S)-(3-(4-(2-(benzo[d][1,3]dioxole-5-yl)-5-hydroxy-1H-benz[d]imidazole-1-yl)pyrimidin-2-ylamino)piperidine-1-yl)(cyclopropyl)methanone] | 0.03 to 0.1 µM | 
Oc1ccc2nc(-c3ccc4ccccc4c3)n(-c3ccnc(NC4CCOCC4)n3)c2c1 [Compound 22a, 2-(naphthalene-2-yl)-1-(2-((tetrahydro-2H-pyran-4-yl)amino)pyrimidin-4-yl)-1H-benzo[d]imidazole-6-ol] |  | 0.03 to 0.1 µM
Oc1ccc2nc(-c3ccc4ccccc4n3)n(-c3ccnc(NC4CCOCC4)n3)c2c1 [Compound 22b, 2-(Quinoline-2-yl)-1-(2-((tetrahydro-2H-pyran-4-yl)amino)pyrimidin-4-yl)-1H-benzo[d]imidazole-6-ol] |  | 0.03 to 0.1 µM
Oc1ccc2nc(-c3ccc4c(c3)OCCO4)n(-c3ccnc(NC4CCOCC4)n3)c2c1 [Compound 22c, 2-(2,3-dihydrobenzo[b][1,4]dioxin-6-yl)-1-(2-((tetrahydro-2H-pyran-4-yl)amino)pyrimidin-4-yl)-1H-benzo[d]imidazole-6-ol] |  | 0.03 to 0.1 µM
Oc1ccc2nc(-c3ccc4occc4c3)n(-c3ccnc(NC4CCOCC4)n3)c2c1 [Compound 22d, 2-(benzofuran-5-yl)-1-(2-((tetrahydro-2H-pyran-4-yl)amino)pyrimidin-4-yl)-1H-benzo[d]imidazole-6-ol] |  | 0.03 to 0.1 µM

Further lines, results first:

IC50 (Table 1) | IC50 (Table 2) | Compound
 | > 0.1 µM | Oc1ccc2nc(-c3ccc4ccccc4c3)n(-c3ccnc(NC4CCCCC4)n3)c2c1 [Compound 23a, 1-(2-(cyclohexylamino)pyrimidin-4-yl)-2-(naphthalene-2-yl)-1H-benzo[d]imidazole-6-ol]
 | > 0.1 µM | Oc1ccc2nc(-c3ccc4ccccc4n3)n(-c3ccnc(NC4CCCCC4)n3)c2c1 [Compound 23b, 3-(2-(cyclohexylamino)pyrimidin-4-yl)-2-(Quinoline-2-yl)-3H-benz[d]imidazole-5-ol]
 | > 0.1 µM | Oc1ccc2nc(-c3ccc4c(c3)OCCO4)n(-c3ccnc(NC4CCCCC4)n3)c2c1 [Compound 23c, 1-(2-(cyclohexylamino)pyrimidin-4-yl)-2-(2,3-dihydrobenzo[b][1,4]dioxin-6-yl)-1H-benzo[d]imidazole-6-ol]
 | > 0.1 µM | Oc1ccc2nc(-c3ccc4occc4c3)n(-c3ccnc(NC4CCCCC4)n3)c2c1 [Compound 23d, 2-(benzofuran-5-yl)-1-(2-(cyclohexylamino)pyrimidin-4-yl)-1H-benzo[d]imidazole-6-ol]
 | 0.03 to 0.1 µM | Oc1ccc2nc(-c3ccc(Cl)c(Cl)c3)n(-c3ccnc(NC4CCCCC4)n3)c2c1 [Compound 23e, 1-(2-(cyclohexylamino)pyrimidin-4-yl)-2-(3,4-dichlorophenyl)-1H-benzo[d]imidazole-6-ol]
 | > 0.1 µM | Oc1ccc2nc(-c3ccc(F)c(C(F)(F)F)c3)n(-c3ccnc(NC4CCCCC4)n3)c2c1 [Compound 23f, 1-(2-(cyclohexylamino)pyrimidin-4-yl)-2-(4-fluoro-3-(trifluoromethyl)phenyl)-1H-benzo[d]imidazole-6-ol]
 | 0.03 to 0.1 µM | O=C(C1CC1)N1CCC[C@H](Nc2nccc(-n3c(-c4ccc5ccccc5n4)nc4ccc(O)cc43)n2)C1 [Compound 26b, (S)-cyclopropyl(3-(4-(6-hydroxy-2-(Quinoline-2-yl)-1H-benzo[d]imidazole-1-yl)pyrimidin-2-ylamino)piperidine-1-yl)methanone]
 | < 0.03 µM | O=C(C1CC1)N1CCC[C@H](Nc2nccc(-n3c(-c4ccc5occc5c4)nc4ccc(O)cc43)n2)C1 [Compound 26d, (S)-(3-((4-(2-(benzofuran-5-yl)-6-hydroxy-1H-benzo[d]imidazole-1-yl)pyrimidin-2-yl)amino)piperidine-1-yl)(cyclopropyl)methanone]
 | < 0.03 µM | O=C(C1CC1)N1CCC[C@H](Nc2nccc(-n3c(-c4ccc(Cl)c(Cl)c4)nc4ccc(O)cc43)n2)C1 [Compound 26e, (S)-cyclopropyl(3-((4-(2-(3,4-dichlorophenyl)-6-hydroxy-1H-benzo[d]imidazole-1-yl)pyrimidin-2-yl)amino)piperidine-1-yl)methanone]
 | 0.03 to 0.1 µM | O=C(C1CC1)N1CCC[C@H](Nc2nccc(-n3c(-c4ccc(F)c(C(F)(F)F)c4)nc4ccc(O)cc43)n2)C1 [Compound 26f, (S)-cyclopropyl(3-((4-(2-(4-fluoro-3-(trifluoromethyl)phenyl)-6-hydroxy-1H-benzo[d]imidazole-1-yl)pyrimidin-2-yl)amino)piperidine-1-yl)methanone]
